# Laboratory results from paper PMC3792642 (Acta Crystallographica Section D: Biological Crystallography, 2013).
# Peptide text beside a SMILES is read from it.
# Tested on: MtbDsbA catalytic Cys89 to Ala mutant
# Format: binding, Mycobacterium tuberculosis H37Rv
# Conditions: ITC, under the conditions tested
structure (smiles),measurement,value
CC(=O)N[C@@H](Cc1ccc(O)cc1)C(=O)N[C@H](C(=O)N1CCC[C@H]1C(=O)N[C@@H](CO)C(=O)N[C@@H](CS)C(=O)N[C@@H](CC(N)=O)C(=O)N[C@H](C(N)=O)C(C)C)C(C)C [YVPSCNV] (Ac-YVPSCNV-NH2),Binding of VKOR peptide to the MtbDsbA catalytic Cys89 to Ala mutant,abolished binding
